Source: patent publication US20160082087A1, “WHITENING PROMOTING AGENT OR ATOPIC DERMATITIS AMELIORATING AGENT” (NITTA GELATIN INC., priority 2013, published 2016)
Marks after values point to notes of the source that are not given here. Square brackets hold non-standard residues; d marks the D form. Ends that are not written are not given here. Hyp = O=C(O)[C@@H]1C[C@@H](O)CN1

Experiments:
Type in all cases: cell-based, human
[1] = test system: hyaluronic acid synthase 2 (HAS2); experiment: HAS2 expression promotion test (real time PCR); details: 0.5 mM, 48 hours, NHEK (NB), control 1.00, GAPDH corrected
Description: (§1) A normal human epidermal keratinocyte NHEK (NB) (available from KURABO INDUSTRIES LTD.) was used. The cells were precultured in HuMedia-KG2 (available from KURABO INDUSTRIES LTD.), and 1.5×10^4 cells/mL×5 mL (7.5×10^4 cells/dish) were cultured in a 60 mm laboratory dish for two days. After confirming that the cells were subconfluent, the medium was replaced by 5 mL of HuMedia-KB2 (available from KURABO INDUSTRIES LTD.). Samples were added in respective concentrations, and allowed to react for 24 hours (ET-1, K10), 48 hours (TGM1, ivl, HAS2), and 72 hours (FLG). Total RNA was extracted from the cells, reverse transcribed, and subjected to real time PCR. In the real time PCR, as target genes, endoserine-1 (ET-1; Hs00174961_m1), keratin 10 (K10; Hs01043114_g1), transglutaminase 1 (TGM1; Hs01070310_m1), involucrin (ivl; Hs00846307_s1), filaggrin (FLG; Hs00856927_g1) and hyaluronic acid synthase 2 (HAS2; Hs00193435_m1) were measured. GAPDH was used as a correction gene. Calculation was conducted by using a calibration curve method, and FAM pigment of TaqMan Gene Expression was used in primers and probes.
(§2) For each peptide or the like of Examples 1 to 13 and Comparative Examples 1 to 27, RNA expression amounts of endoserine-1 (ET-1), keratin 10 (K10), transglutaminase 1 (TGM1), involucrin (ivl), filaggrin (FLG) and hyaluronic acid synthase 2 (HAS2) were measured. Values in the tables are each average value±standard deviation, and *, ** and *** denote that they are significant with P<0.05, P<0.01, and P<0.001, respectively with respect to the control in Paired-t-test.

involucrin (ivl) = experiment: ivl expression promotion test (real time PCR); details: 0.5 mM, 48 hours, NHEK (NB), control 1.00, GAPDH corrected
Description: as §1, §2

filaggrin (FLG) = experiment: FLG expression promotion test (real time PCR); details: 0.5 mM, 72 hours, NHEK (NB), control 1.00, GAPDH corrected
Description: as §1, §2

endoserine-1 (ET-1) = experiment: ET-1 expression suppression test (real time PCR); details: 0.5 mM, 24 hours, NHEK (NB), control 1.00, GAPDH corrected
Description: as §1, §2

[2] = test system: transglutaminase 1 (TGM1); experiment: TGM1 expression promotion test (real time PCR); details: 0.5 mM, 48 hours, NHEK (NB), control 1.00, GAPDH corrected
Description: as §1, §2

keratin 10 (K10) = experiment: K10 expression promotion test (real time PCR); details: 0.5 mM, 24 hours, NHEK (NB), control 1.00, GAPDH corrected
Description: as §1, §2

Compound | Hyaluronic acid synthase 2 RNA expression amount [1] | Involucrin RNA expression amount (involucrin (ivl)) | Filaggrin RNA expression amount (filaggrin (FLG)) | Endoserine-I RNA expression amount (endoserine-1 (ET-1)) | Transglutaminase 1 RNA expression amount [2] | Keratin 10 RNA expression amount (keratin 10 (K10))
O=C(O)[C@@H]1CCCN1 [Comparative Example 7, L-proline] | 0.84 ± 0.47 | 0.78 ± 0.01** | 0.85 ± 0.18 | 1.89 ± 0.06** | 1.02 ± 0.13 | 0.73 ± 0.03**
O=C(O)[C@@H]1C[C@@H](O)CN1 [Comparative Example 8, L-hydroxyproline] | 0.70 ± 0.29 | 0.94 ± 0.04 | 0.89 ± 0.09 | 1.52 ± 0.02*** | 0.94 ± 0.10 | 0.64 ± 0.02**
NCC(=O)O [Comparative Example 9, L-glycine] | 0.61 ± 0.40** | 0.71 ± 0.03** | 0.87 ± 0.05 | 1.01 ± 0.05** | 0.75 ± 0.01** | 0.81 ± 0.05
CC(C)C[C@H](N)C(=O)O [Comparative Example 10, L-leucine] | 0.76 ± 0.07* | 0.84 ± 0.03 | 0.89 ± 0.08 | 1.58 ± 0.05** | 0.63 ± 0.07* | 0.62 ± 0.01**
N[C@@H](CCC(=O)O)C(=O)O [Comparative Example 11, L-glutamic acid] | 1.06 ± 0.24 | 0.85 ± 0.11 | 0.77 ± 0.04* | 1.00 ± 0.02** | 0.40 ± 0.01** | 0.65 ± 0.01**
C[C@H](N)C(=O)O [Comparative Example 12, L-alanine] | 0.89 ± 0.57 | 0.64 ± 0.15** | 0.69 ± 0.02** | 1.58 ± 0.05** | 0.95 ± 0.04 | 0.82 ± 0.02*
N[C@@H](CO)C(=O)O [Comparative Example 13, L-serine] | 0.81 ± 0.50 | 0.98 ± 0.05 | 0.85 ± 0.08 | 1.64 ± 0.07** | 0.85 ± 0.02 | 0.69 ± 0.03**
N[C@@H](Cc1ccccc1)C(=O)O [Comparative Example 14, L-phenylalanine] | 0.89 ± 0.84 | 0.87 ± 0.04 | 0.59 ± 0.05** | 1.05 ± 0.05 | 0.72 ± 0.05** | 0.78 ± 0.07
(Pro-Hyp-Gly)2 [Example 2] | 3.11 ± 0.89** | 4.35 ± 0.04*** | 9.58 ± 1.02*** | 0.43 ± 0.03*** | 7.21 ± 0.03** | 5.69 ± 0.28***
(Pro-Hyp-Gly)5 [Example 1] | 3.45 ± 1.02** | 7.96 ± 0.60** | 11.23 ± 1.56*** | 0.32 ± 0.00* | 13.50 ± 2.69** | 6.40 ± 0.06
Ala-Hyp [Comparative Example 2] | 0.99 ± 0.66 | 1.01 ± 0.00 | 0.98 ± 0.95 | 1.23 ± 0.03* | 0.48 ± 0.02*** | 1.00 ± 0.06
Ala-[Hyp]-Gly [Example 7] | 2.21 ± 0.67** | 1.36 ± 0.07* | 3.09 ± 0.23** | 0.52 ± 0.01 | 2.00 ± 0.02*** | 5.06 ± 0.37***
Glu-Hyp [Example 6] | 2.35 ± 0.85** | 1.95 ± 0.08** | 3.26 ± 1.61** | 0.65 ± 0.02 | 2.12 ± 0.01*** | 3.48 ± 0.05***
Glu-[Hyp]-Gly [Example 8] | 2.56 ± 0.45** | 1.89 ± 0.03* | 2.92 ± 0.89** | 0.71 ± 0.03 | 1.69 ± 0.01*** | 2.39 ± 0.02*
Gly-Pro [Example 3] | 3.08 ± 0.99** | 2.18 ± 0.00*** | 7.21 ± 0.95*** | 0.36 ± 0.12** | 2.15 ± 0.02** | 2.56 ± 0.22***
Gly-Pro-[Hyp] [Comparative Example 1] | 0.98 ± 0.45 | 0.95 ± 0.08 | 1.08 ± 0.21 | 1.05 ± 0.11 | 0.98 ± 0.05 | 0.94 ± 0.10
Hyp-Gly [Example 9] | 2.18 ± 0.67** | 2.04 ± 0.02* | 2.98 ± 0.58** | 0.55 ± 0.09** | 1.99 ± 0.06* | 1.99 ± 0.13*
Leu-Hyp [Comparative Example 3] | 0.87 ± 0.63 | 0.89 ± 0.09* | 0.69 ± 0.58 | 1.08 ± 0.00 | 0.58 ± 0.01*** | 1.04 ± 0.06
Phe-Hyp [Example 11] | 1.63 ± 0.49* | 1.85 ± 0.00*** | 1.95 ± 0.19* | 0.97 ± 0.16 | 1.46 ± 0.02* | 2.22 ± 0.01***
Pro-Ala [Comparative Example 6] | 0.99 ± 0.68 | 0.81 ± 0.06** | 0.63 ± 0.08** | 1.09 ± 0.01** | 0.94 ± 0.13 | 0.70 ± 0.04
